Results published in patent US7396837B2, “Antitumoral analogs of lamellarins” (Pharma Mar, S.A.U., priority 2002, dated 2008).

Columns and labels:
Format in all cases: cell-based
[1] = test system: H-MEC-1; assay: SRB colorimetric cell growth inhibition assay, H-MEC-1; conditions: Homo sapiens, HMEC-1, H-MEC-1; for GI50: GI=growth inhibition; for IC (TGI): TGI=total growth inhibition (cytostatic effect), read-out: TGI H-MEC-1
Outline: (§1)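 Growth and viability quantified by sulforhodamine B staining in 96-well microplates. Triplicate wells give mean ± SD; derived endpoints are GI, TGI (cytostatic) and LC (cytotoxic).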

[2] = as above; conditions: human, H-MEC-1 cells, H-MEC-1; LC=cell killing (cytotoxic effect); read-out: LC50 H-MEC-1
Outline: as §1

[3] = test system: IGROV; assay: SRB colorimetric cell growth inhibition assay, IGROV; conditions: Homo sapiens, IGROV; for GI50: GI=growth inhibition, read-out: GI50 IGROV; for CC50: LC=cell killing (cytotoxic effect), read-out: LC50 IGROV; for IC (TGI): TGI=total growth inhibition (cytostatic effect), read-out: TGI IGROV
Outline: (§2)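 Continuous drug exposure of human cancer cells; SRB protein stain read-out; triplicate wells, mean ± SD; GI, TGI, LC computed.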

[4] = test system: SK-MEL-28; assay: SRB colorimetric cell growth inhibition assay, SK-MEL-28; conditions: Homo sapiens, SK-MEL-28, MEL-28; for GI50: GI=growth inhibition, read-out: GI50 MEL-28; for CC50: LC=cell killing (cytotoxic effect), read-out: LC50 MEL-28; for IC (TGI): TGI=total growth inhibition (cytostatic effect), read-out: TGI MEL-28
Outline: as §2

[5] = test system: LoVo-Dox; assay: SRB colorimetric cell growth inhibition assay, LoVo-Dox (MDR); conditions: Homo sapiens, LOVO-DOX; for GI50: GI=growth inhibition, read-out: GI50 LOVO-DOX; for CC50: cell killing (cytotoxic effect), read-out: LC50 LOVO-DOX; for IC (TGI): total growth inhibition (cytostatic effect), read-out: TGI LOVO-DOX
Outline: as §2

[6] = test system: LoVo; assay: SRB colorimetric cell growth inhibition assay, LoVo; conditions: Homo sapiens, LoVo; for GI50: GI=growth inhibition, read-out: GI50 LOVO; for CC50: cell killing (cytotoxic effect), read-out: LC50 LOVO; for IC (TGI): total growth inhibition (cytostatic effect), read-out: TGI LOVO
Outline: as §2

[7] = test system: PANC-1; assay: SRB colorimetric cell growth inhibition assay, PANC-1; conditions: Homo sapiens, PANC-1, PANC-1; for GI50: GI=growth inhibition, read-out: GI50 PANC-1; for CC50: cell killing (cytotoxic effect), read-out: LC50 PANC-1; for IC (TGI): total growth inhibition (cytostatic effect), read-out: TGI PANC-1
Outline: as §2

[8] = test system: HT-29; assay: SRB colorimetric cell growth inhibition assay, HT-29; conditions: Homo sapiens, HT-29, HT-29; for GI50: GI=growth inhibition, read-out: GI50 HT-29; for CC50: cell killing (cytotoxic effect), read-out: LC50 HT-29; for IC (TGI): total growth inhibition (cytostatic effect), read-out: TGI HT-29
Outline: as §2

[9] = test system: SKOV-3; assay: SRB colorimetric cell growth inhibition assay, SKOV-3; conditions: Homo sapiens; for GI50: SK-OV-3, SKOV-3, GI=growth inhibition, read-out: GI50 SKOV-3; for CC50 / IC (TGI): SK-OV-3, SKOV-3; for CC50: LC=cell killing (cytotoxic effect), read-out: LC50 SKOV-3; for IC (TGI): TGI=total growth inhibition (cytostatic effect), read-out: TGI SKOV-3
Outline: as §1

[10] = test system: DU-145; assay: SRB colorimetric cell growth inhibition assay, DU-145; conditions: Homo sapiens, DU-145, DU-145; for GI50: GI=growth inhibition, read-out: GI50 DU-145; for CC50: LC=cell killing (cytotoxic effect), read-out: LC50 DU-145; for IC (TGI): TGI=total growth inhibition (cytostatic effect), read-out: TGI DU-145
Outline: as §2

[11] = test system: IGROV-ET; assay: SRB colorimetric cell growth inhibition assay, IGROV-ET (ET-743 resistant); conditions: Homo sapiens, IGROV-ET; for GI50: GI=growth inhibition, read-out: GI50 IGROV-ET; for CC50: LC=cell killing (cytotoxic effect), read-out: LC50 IGROV-ET; for IC (TGI): TGI=total growth inhibition (cytostatic effect), read-out: TGI IGROV-ET
Outline: as §2

[12] = test system: SK-BR-3; assay: SRB colorimetric cell growth inhibition assay, SK-BR-3; conditions: Homo sapiens, SK-BR-3, SK-BR-3; for GI50: GI=growth inhibition, read-out: GI50 SK-BR-3; for CC50: LC=cell killing (cytotoxic effect), read-out: LC50 SK-BR-3; for IC (TGI): TGI=total growth inhibition (cytostatic effect), read-out: TGI SK-BR-3
Outline: as §2

[13] = test system: K-562; assay: SRB colorimetric cell growth inhibition assay, K-562; conditions: Homo sapiens, K562, K-562; for GI50: GI=growth inhibition, read-out: GI50 K-562; for CC50: cell killing (cytotoxic effect), read-out: LC50 K-562; for IC (TGI): total growth inhibition (cytostatic effect), read-out: TGI K-562
Outline: as §2

[14] = test system: A-549; assay: SRB colorimetric cell growth inhibition assay, A-549; conditions: Homo sapiens, A549, A-549; for GI50: GI=growth inhibition, read-out: GI50 A-549; for CC50: cell killing (cytotoxic effect), read-out: LC50 A-549; for IC (TGI): total growth inhibition (cytostatic effect), read-out: TGI A-549
Outline: as §2

Structure (SMILES)	GI50 [1]	IC (TGI) [1]	CC50 [2]	GI50 [3]	CC50 [3]	IC (TGI) [3]	GI50 [4]	CC50 [4]	IC (TGI) [4]	GI50 [5]	CC50 [5]	IC (TGI) [5]	GI50 [6]	CC50 [6]	IC (TGI) [6]	GI50 [7]	CC50 [7]	IC (TGI) [7]	GI50 [8]	CC50 [8]	further results
COc1cc(-c2c3n(c4c(=O)oc5cc(OC(=O)[C@H](C)N)c(OC)cc5c24)CCc2c-3cc(OC)c(OC)c2OC(=O)[C@H](C)N)ccc1OC(=O)[C@H](C)N [Compound 96]	0.381 µM	9.2 µM	9.2 µM	1.2 µM	7.54 µM	3.01 µM	2.14 µM	9.18 µM	4.43 µM	0.563 µM	9.2 µM	2.07 µM	2.28 µM	9.2 µM	9.2 µM	1.68 µM	9.2 µM	5.65 µM	9.2 µM	9.2 µM	IC (TGI) [8]: 9.2 µM; GI50 [9]: 4.2 µM; CC50 [9]: 9.2 µM; IC (TGI) [9]: 9.2 µM; GI50 [10]: 4.26 µM; CC50 [10]: 9.2 µM; IC (TGI) [10]: 9.2 µM; GI50 [11]: 2.69 µM; CC50 [11]: 9.2 µM; IC (TGI) [11]: 5.6 µM; GI50 [12]: 0.417 µM; CC50 [12]: 5.47 µM; IC (TGI) [12]: 1.86 µM; GI50 [13]: 1.63 µM; CC50 [13]: 9.2 µM; IC (TGI) [13]: 4.43 µM; GI50 [14]: 4.97 µM; CC50 [14]: 9.2 µM; IC (TGI) [14]: 9.2 µM
COc1cc(-c2c3c4cc(OC)c(OC(=O)[C@H](C)NC(=O)OC(C)(C)C)cc4oc(=O)c3n3ccc4c(OC(=O)[C@H](C)NC(=O)OC(C)(C)C)c(OC)c(OC)cc4c23)ccc1OC(=O)[C@H](C)NC(=O)OC(C)(C)C [Compound 97]	0.0337 µM	0.0959 µM	9.59 µM	0.186 µM	7.54 µM	1.94 µM	0.262 µM	9.59 µM	4.71 µM	5.29 µM	9.59 µM	9.59 µM	5.28 µM	9.59 µM	9.59 µM	4.47 µM	9.59 µM	9.59 µM	9.59 µM	9.59 µM	IC (TGI) [8]: 9.59 µM; GI50 [9]: 6.01 µM; CC50 [9]: 9.59 µM; IC (TGI) [9]: 9.59 µM; GI50 [10]: 4.13 µM; CC50 [10]: 9.59 µM; IC (TGI) [10]: 9.59 µM; GI50 [11]: 0.678 µM; CC50 [11]: 9.59 µM; IC (TGI) [11]: 3.33 µM; GI50 [12]: 1.23 µM; CC50 [12]: 9.59 µM; IC (TGI) [12]: 3.58 µM; GI50 [13]: 3.2 µM; CC50 [13]: 9.59 µM; IC (TGI) [13]: 6.86 µM; GI50 [14]: 9.59 µM; CC50 [14]: 9.59 µM; IC (TGI) [14]: 9.59 µM
